pIC50: −log10 of the molar value. Where two headings read alike, the source gives them in different places.
System: HCT116 cells
Assay: Cell viability assay (CellTiter-Glo, 72 hours) in HCT116 human colorectal cancer cells
Assay type: cell-based
How it was run: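 2,000 cells/well adhered overnight, then compound added by digital dispenser with DMSO normalized to 0.5%. Viability read after 72 h at 37 °C by ATP-based CellTiter-Glo luminescence. IC50 from ten-point curves baseline-corrected to vehicle, five-parameter asymmetric least-squares fit.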

[1] = Table 9, HCT116, 72 hours, read-out: Activity
[2] = cell viability assay, Table 10 analogs of scaffold drawing 45 defined by R2, R3, X/Y, W, read-out: Activity
[3] = Table 8, analogs of scaffold drawing 43 defined by R^2, R^3, X/Y, W, read-out: Activity (IC50 class, cell viability assay)

| Structure (SMILES) | pIC50 [1] | pIC50 [3] | further results |
| --- | --- | --- | --- |
| COC12CC(C(=O)Nc3ccc4c(c3)C(C#N)c3ccccc3C(=O)N4CC#CCF)(C1)C2 (stereo not shown) | > 6.30 | – | – |
| O=C(Nc1ccc2c(c1)Cc1ccccc1C(=O)N2CC#CC1CC1)C1CC2(CC(=NO)C2)C1 (stereo not shown) | > 6.30 | – | – |
| CC#CCN1C(=O)c2ccccc2Cc2cc(NC(=O)C34CC(O)(C3)C4)ccc21 | > 6.30 | – | – |
| CC#CCN1C(=O)c2ccccc2Cc2cc(NC(=O)C34CC(OC)(C3)C4)ccc21 | > 6.30 | – | – |
| CC#CCN1C(=O)c2ccccc2C(C#N)c2cc(NC(=O)C34CC(OC)(C3)C4)ccc21 (stereo not shown) | > 6.30 | – | – |
| CC#CCN1C(=O)c2ccccc2C(C)c2cc(NC(=O)C34CC(OC)(C3)C4)ccc21 (stereo not shown) | > 6.30 | – | – |
| CC#CCN1C(=O)c2ccccc2C(C)(O)c2cc(NC(=O)c3ccc(OC)nc3)ccc21 (stereo not shown) | > 6.30 | – | – |
| CC#CCN1C(=O)c2ccccc2C(C#N)c2cc(NC(=O)C3CC4(CC(=NO)C4)C3)ccc21 (stereo not shown) | > 6.30 | – | – |
| CC#CCN1C(=O)c2ccccc2Cc2cc(NC(=O)C3CC4(CC(=NO)C4)C3)ccc21 (stereo not shown) | > 6.30 | – | – |
| CC#CCN1C(=O)c2ccccc2C(C)(O)c2cc(NC(=O)C3CC4(CC(=NO)C4)C3)ccc21 (stereo not shown) | > 6.30 | – | – |
| O=C(Nc1ccc2c(c1)Cc1ccccc1C(=O)N2CC#CC1CC1)C1CC2(COC2)C1 | > 6.30 | – | – |
| CO[C@H]1C[C@H](C(=O)Nc2ccc3c(c2)C(C)(O)c2ccccc2C(=O)N3CC#CC2CC2)C1 (stereo partly shown) | > 6.30 | – | – |
| CC1c2ccccc2C(=O)N(CC#CC2CC2)c2ccc(NC(=O)[C@H]3C[C@H](O)C3)cc21 (stereo partly shown) | > 6.30 | – | – |
| COC12CC(C(=O)Nc3ccc4c(c3)C(C#N)c3ccccc3C(=O)N4CC#CC3CC3)(C1)C2 (stereo not shown) | > 6.30 | – | – |
| COC12CC(C(=O)Nc3cnc4c(c3)Sc3ccccc3C(=O)N4CC#CCF)(C1)C2 | – | – | pIC50 [2]: > 6.30 |
| CC#CCN1C(=O)c2ccccc2Sc2cc(NC(=O)C34CC(OC)(C3)C4)ccc21 | – | – | pIC50 [2]: > 6.30 |
| CC#CCN1C(=O)c2ccc(Cl)cc2Sc2cc(NC(=S)C34CC(OC)(C3)C4)ccc21 | – | – | pIC50 [2]: > 6.30 |
| CC#CCN1C(=O)c2ccc(Cl)cc2Sc2cc(NC(=O)C3CC4(CC(O)C4)C3)ccc21 (stereo not shown) | – | – | pIC50 [2]: > 6.30 |
| COCC1CC1C(=O)Nc1ccc2c(c1)C(C)(O)c1ccccc1C(=O)N2CC#CC1CC1 (racemic) | > 6.30 | – | – |
| O=C(Nc1ccc2c(c1)Sc1cc(Cl)ccc1C(=O)N2CC#CCl)C1CC1CO (racemic) [—CH2CCCl; trans-2-HOCH2-cPr; CCl/CH; CH] | – | > 6.30 | – |
| CC#CCN1C(=O)c2ccc(Cl)cc2Sc2cc(NC(=O)C3CC3CO)cnc21 (racemic) [—CH2CCMe; trans-2-HOCH2-cPr; CCI/CH; N] | – | > 6.30 | – |
| CC#CCN1C(=O)c2cc(F)ccc2Sc2cc(NC(=O)C3CC3C(=O)OC)ccc21 (racemic) [—CH2CCMe; trans-2-MeO2C-cPr; CH/CF; CH] | – | > 6.30 | – |
| COCC1CC1C(=O)Nc1cnc2c(c1)Sc1ccccc1C(=O)N2CC#CC1CC1 (racemic) [—CH2CC^cPr; trans-2-MeOCH2-cPr; CH/CH; N] | – | > 6.30 | – |

| Structure (SMILES) | pIC50 [1] | pIC50 [3] | further results |
| --- | --- | --- | --- |
| CC#CCN1C(=O)c2ccccc2C(C)c2cc(NC(=O)[C@@H]3C[C@H]3C(=O)OC)ccc21 (relative stereo) | > 6.30 | – | – |
| CC#CCN1C(=O)c2ccccc2C(C)c2cc(NC(=O)[C@@H]3C[C@H]3COC)ccc21 (relative stereo) | > 6.30 | – | – |
| CC1c2ccccc2C(=O)N(CC#CC2CC2)c2ccc(NC(=O)[C@@H]3C[C@H]3CO)cc21 (relative stereo) | > 6.30 | – | – |
| N#CC1c2ccccc2C(=O)N(CC#CC2CC2)c2ccc(NC(=O)[C@H]3C[C@@H]3CO)cc21 (relative stereo) | > 6.30 | – | – |
| CC1(O)c2ccccc2C(=O)N(CC#CC2CC2)c2ccc(NC(=O)[C@@H]3C[C@H]3CO)cc21 (relative stereo) | > 6.30 | – | – |
| COC[C@@H]1C[C@H]1C(=O)Nc1ccc2c(c1)Sc1cc(Cl)ccc1C(=O)N2CC#CCl (relative stereo) [—CH2CCCl; trans-2-MeOCH2-cPr; CCl/CH; CH] | – | > 6.30 | – |
| C#CCN1C(=O)c2ccc(Cl)cc2Sc2cc(NC(=O)[C@@H]3C[C@H]3CO)ccc21 (relative stereo) [—CH2CCH; trans-2-HOCH2-cPr; CCI/CH; CH] | – | > 6.30 | – |
| C#CCN1C(=O)c2ccc(Cl)cc2Sc2cc(NC(=O)[C@@H]3C[C@H]3COC)ccc21 (relative stereo) [—CH2CCH; trans-2-MeOCH2-cPr; CCl/CH; CH] | – | > 6.30 | – |
| CC#CCN1C(=O)c2ccc(Cl)cc2Sc2cc(NC(=O)[C@@H]3C[C@H]3CO)ccc21 (relative stereo) [—CH2CCMe; trans-2-HOCH2-cPr; CCl/CH; CH] | – | > 6.30 | – |
| CC#CCN1C(=O)c2ccc(F)cc2Sc2cc(NC(=O)[C@@H]3C[C@H]3CO)cnc21 (relative stereo) [—CH2CCMe; trans-2-HOCH2-cPr; CF/CH; N] | – | > 6.30 | – |
| CC#CCN1C(=O)c2cc(F)ccc2Sc2cc(NC(=O)[C@@H]3C[C@H]3CO)ccc21 (relative stereo) [—CH2CCMe; trans-2-HOCH2-cPr; CH/CF; CH] | – | > 6.30 | – |
| CC#CCN1C(=O)c2cc(F)ccc2Sc2cc(NC(=O)[C@@H]3C[C@H]3CO)cnc21 (relative stereo) [—CH2CCMe; trans-2-HOCH2-cPr; CH/CF; N] | – | > 6.30 | – |
| CC#CCN1C(=O)c2ccc(Cl)cc2Sc2cc(NC(=O)[C@@H]3C[C@H]3C(=O)OC)ccc21 (relative stereo) [—CH2CCMe; trans-2-MeO2C-cPr; CCl/CH; CH] | – | > 6.30 | – |
| CC#CCN1C(=O)c2ccccc2Sc2cc(NC(=O)[C@@H]3C[C@H]3C(=O)OC)ccc21 (relative stereo) [—CH2CCMe; trans-2-MeO2C-cPr; CH/CH; CH] | – | > 6.30 | – |
| CC#CCN1C(=O)c2ccccc2Sc2cc(NC(=O)[C@@H]3C[C@H]3C(=O)OC)cnc21 (relative stereo) [—CH2CCMe; trans-2-MeO2C-cPr; CH/CH; N] | – | > 6.30 | – |
| CC#CCN1C(=O)c2ccc(C#N)cc2Sc2cc(NC(=O)[C@@H]3C[C@H]3COC)ccc21 (relative stereo) [—CH2CCMe; trans-2-MeOCH2-cPr; CCN/CH; CH] | – | > 6.30 | – |
| CC#CCN1C(=O)c2ccc(C#N)cc2Sc2cc(NC(=O)[C@@H]3C[C@H]3COC)cnc21 (relative stereo) [—CH2CCMe; trans-2-MeOCH2-cPr; CCN/CH; N] | – | > 6.30 | – |
| CC#CCN1C(=O)c2ccc(Cl)cc2Sc2cc(NC(=O)[C@H]3C[C@@H]3COC)ccc21 (relative stereo) [—CH2CCMe; trans-2-MeOCH2-cPr; CCl/CH; CH] | – | > 6.30 | – |
| CC#CCN1C(=O)c2ccc(Cl)cc2Sc2cc(NC(=O)[C@H]3C[C@@H]3COC)cnc21 (relative stereo) [—CH2CCMe; trans-2-MeOCH2-cPr; CCl/CH; N] | – | > 6.30 | – |
| CC#CCN1C(=O)c2ccc(F)cc2Sc2cc(NC(=O)[C@@H]3C[C@H]3COC)cnc21 (relative stereo) [—CH2CCMe; trans-2-MeOCH2-cPr; CF/CH; N] | – | > 6.30 | – |
| CC#CCN1C(=O)c2ccccc2Sc2cc(NC(=O)[C@@H]3C[C@H]3COC)cnc21 (relative stereo) [—CH2CCMe; trans-2-MeOCH2-cPr; CH/CH; N] | – | > 6.30 | – |
| O=C(Nc1cnc2c(c1)Sc1ccccc1C(=O)N2CC#CC1CC1)[C@@H]1C[C@H]1CO (relative stereo) [—CH2CC^cPr; trans-2-HOCH2-cPr; CH/CH; N] | – | > 6.30 | – |
| COC(=O)[C@@H]1C[C@H]1C(=O)Nc1cnc2c(c1)Sc1ccccc1C(=O)N2CC#CC1CC1 (relative stereo) [—CH2CC^cPr; trans-2-MeO2C-cPr; CH/CH; N] | – | > 6.30 | – |
